Assays:
[1] = target: T1, μ-opioid receptor (Homo sapiens, UniProt P35372); experiment: cell-based; set-up: purchased Perkin Elmer, Shelton, Conn; details: U2OS cells; for EC50: read-out: β-Arr2 μ EC50; for Emax: read-out: β-Arr2 μ Emax
[2] = target: T1, μ-opioid receptor; experiment: biochemical; set-up: purchased Perkin Elmer, Shelton, Conn; host or cells: HEK-293 or CHO; details: HEK-293 or CHO cells; for EC50: read-out: GTPγS μ EC50; for Emax: relative to DAMGO, read-out: GTPγS μ Emax
[3] = target: T1, μ-opioid receptor; experiment: μ-opioid receptor GTPγS functional assay, U2OS cells; details: for Emax: read-out: GTPγS μ Emax
[4] = target: κ-opioid receptor (Homo sapiens, UniProt P41145); experiment: κ-opioid receptor GTPγS functional assay, U2OS cells; assay type: biochemical; set-up: expressed in transfected cells; host or cells: U-2 OS; details: U2OS cells; for EC50: read-out: GTPγS κ EC50
Sequence of κ-opioid receptor (P41145 whole entry): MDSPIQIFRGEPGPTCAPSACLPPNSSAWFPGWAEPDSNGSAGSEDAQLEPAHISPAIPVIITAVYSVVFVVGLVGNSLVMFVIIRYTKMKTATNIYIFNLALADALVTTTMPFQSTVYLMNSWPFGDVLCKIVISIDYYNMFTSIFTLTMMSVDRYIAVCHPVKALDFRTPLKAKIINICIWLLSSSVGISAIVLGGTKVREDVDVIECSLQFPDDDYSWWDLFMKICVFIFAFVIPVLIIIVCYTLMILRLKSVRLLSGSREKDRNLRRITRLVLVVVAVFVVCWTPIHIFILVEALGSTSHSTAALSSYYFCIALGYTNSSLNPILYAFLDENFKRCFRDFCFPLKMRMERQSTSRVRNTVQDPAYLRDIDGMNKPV
Experimental: Plates were incubated for 30 min at a temperature of about 25° C. with shaking.

T1 sequence (P35372 whole entry, species assumed): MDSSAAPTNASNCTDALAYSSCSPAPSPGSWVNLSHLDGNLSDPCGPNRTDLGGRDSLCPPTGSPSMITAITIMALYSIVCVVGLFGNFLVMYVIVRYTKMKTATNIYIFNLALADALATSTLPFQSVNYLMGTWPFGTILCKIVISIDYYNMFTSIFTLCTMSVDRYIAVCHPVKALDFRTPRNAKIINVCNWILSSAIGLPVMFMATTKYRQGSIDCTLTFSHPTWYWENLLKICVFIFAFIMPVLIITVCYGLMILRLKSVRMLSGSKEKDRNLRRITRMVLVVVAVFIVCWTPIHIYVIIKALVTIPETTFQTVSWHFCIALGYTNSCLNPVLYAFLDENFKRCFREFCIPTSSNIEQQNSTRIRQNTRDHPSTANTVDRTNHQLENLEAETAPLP

Compound	EC50 [1]	Emax [1]	EC50 [2]	Emax [2]	EC50 [3]	Emax [3]	Emax [4]	EC50 [4]
C[C@H]1[C@H]2Cc3ccc(O)cc3[C@]1(CCNC(=O)c1ccc(C(N)=O)cc1)CCN2C [Compound 86, N-(2-((2R,6R,11R)-8-hydroxy-3,11-dimethyl-2,3,4,5-tetrahydro-2,6-methanobenzo[d]azocin-6(1H)-yl)ethyl)terephthalamide]	289 ± 91.8 nM	11.2 ± 0.69%	252 ± 23.5 nM	48.2 ± 1.26%	–	–	–	–
C[C@H]1[C@H]2Cc3ccc(O)cc3[C@]1(CCNC(=O)c1ccc(F)cc1)CCN2C [Compound 83, 4-Fluoro-N-(2-((2R,6R,11R)-8-hydroxy-3,11-dimethyl-2,3,4,5-tetrahydro-2,6-methanobenzo[d]azocin-6(1H)-yl)ethyl)benzamide]	13.8 ± 3.03 nM	46.5 ± 1.93%	13.6 ± 3.38 nM	77.2 ± 3.52%	–	–	–	–
C[C@H]1[C@H]2Cc3ccc(O)cc3[C@]1(CCNS(=O)(=O)c1ccc(F)cc1)CCN2C [Compound 69, 4-fluoro-N-(2-((2R,6S,11R)-8-hydroxy-3,11-dimethyl-2,3,4,5-tetrahydro-2,6-methanobenzo[d]azocin-6(1H)-yl)ethyl)-benzenesulfonamide]	2.97 ± 0.34 nM	14.7 ± 0.88%	5.42 ± 1.11 nM	59.3 ± 1.2%	–	–	–	–
C[C@H]1[C@H]2Cc3ccc(O)cc3[C@]1(CCNC(=O)NS(=O)(=O)c1ccc(F)cc1)CCN2C [Compound 66, 4-fluoro-N-((2-((2R,6R,11R)-8-hydroxy-3,11-dimethyl-2,3,4,5-tetrahydro-2,6-methanobenzo[d]azocin-6(1H)-yl)-ethyl)carbamoyl)benzenesul-fonamide]	2290 ± 703 nM	15.9 ± 0.72%	174 ± 13.1 nM	37.3 ± 0.88%	–	–	–	–
C[C@H]1[C@H]2Cc3ccc(O)cc3[C@]1(CCNC(=O)[C@@H]1CCC(=O)N1)CCN2C [Compound 72, (S)-N-(2-((2R,6R,11R)-8-hydroxy-3,11-dimethyl-2,3,4,5-tetrahydro-2,6-methano-benzo[d]azocin-6(1H)-yl)ethyl)-5-oxopyrrolidine-2-carboxamide]	267 ± 63.3 nM	5.8 ± 0.42%	241 ± 56.7 nM	37.2 ± 1.8%	–	–	–	–
C[C@H]1[C@H]2Cc3ccc(O)cc3[C@]1(CCNC(=O)CCc1ccccc1)CCN2C [Compound 85, N-(2-((2R,6R,11R)-8-hydroxy-3,11-dimethyl-2,3,4,5-tetrahydro-2,6-methanobenzo[d]azocin-6(1H)-yl)ethyl)-3-phenylpropanamide]	6.55 ± 2.88 nM	39.8 ± 0.77%	6.51 ± 0.17 nM	69.5 ± 2.23%	–	–	–	–
C[C@H]1[C@H]2Cc3ccc(O)cc3[C@]1(CCNC(=O)Nc1ccccc1)CCN2C [Compound 68, 1-(2-((2R,6R,11R)-8-hydroxy-3,11-dimethyl-2,3,4,5-tetrahydro-2,6-methano-benzo[d]azocin-6(1H)-yl)ethyl)-3-phenylurea]	18.9 ± 1.23 nM	72.3 ± 0.88%	28.5 ± 2.07 nM	75.8 ± 2.39%	–	–	–	–
C[C@H]1[C@H]2Cc3ccc(O)cc3C1(CCNS(=O)(=O)N(C)C)CCN2C [Compound 80]	1180 ± 822 nM	2.62 ± 0.36%	134 ± 3.21 nM	27.9 ± 0.47%	–	–	–	–
COc1ccc2c(c1)[C@]1(CCN3CCC[C@@H]3C(=O)O)CCN(C)[C@H](C2)[C@@H]1C [Compound 60, (2-((2R,6S,11R)-8-methoxy-3,11-dimethyl-2,3,4,5-tetrahydro-2,6-methanobenzo[d]azocin-6(1H)-yl)ethyl)-D-proline]	–	–	–	–	4910 ± 1080 nM	49 ± 3.61%	97.7 ± 8.09%	–
COc1ccc2c(c1)[C@]1(CCNCCCN3CCCC3=O)CCN(C)[C@H](C2)[C@@H]1C [Compound 57, 1-(3-((2-((2R,6R,11R)-8-methoxy-3,11-dimethyl-2,3,4,5-tetrahydro-2,6-methanobenzo-[d]azocin-6(1H)-yl)ethyl)amino)propyl)pyrrolidin-2-one]	–	–	–	–	11300 ± 435 nM	70.7 ± 2.03%	118 ± 2%	11400 ± 994 nM
C[C@H]1[C@H]2Cc3ccc(O)cc3[C@]1(CCNC(=O)NCc1ccccc1)CCN2CC1CC1 [Compound 21, 1-benzyl-3-(2-((2R,6R,11R)-3-(cyclopropylmethyl)-8-hydroxy-11-methyl-2,3,4,5-tetrahydro-2,6-methanobenzo[d]azocin-6(1H)-yl)ethyl)urea]	0.38 ± 0.11 nM	30.1 ± 0.81%	0.28 ± 0.027 nM	54.7 ± 2.63%	–	–	–	–
COC[C@@H]1CCCN1CC[C@]12CCN(C)[C@H](Cc3ccc(OC)cc31)[C@@H]2C [Compound 56, (2R,6S,11R)-8-methoxy-6-(2-((S)-2-(methoxymethyl)pyrrolidin-1-yl)ethyl)-3,11-dimethyl-1,2,3,4,5,6-hexahydro-2,6-methanobenzo[d]azocine]	–	–	–	–	5990 ± 1220 nM	72.3 ± 2.85%	94.7 ± 4.48%	5490 ± 434 nM
COc1ccc2c(c1)[C@@]1(CCO)CCN(C)[C@@H](C2)[C@H]1C [Compound 49, 2-((2S,6R,11S)-8-methoxy-3,11-dimethyl-2,3,4,5-tetrahydro-2,6-methanobenzo-[d]azocin-6(1H)-yl)ethan-1-ol]	–	–	–	–	–	21%	41 ± 4.58%	–
COc1ccc2c(c1)[C@@]1(CCOCc3ccccc3)CCN(C)[C@@H](C2)[C@H]1C [Compound 47, (2S,6R,11S)-6-(2-(benzyloxy)ethyl)-8-methoxy-3,11-dimethyl-1,2,3,4,5,6-hexahydro-2,6-methanobenzo[d]azocine]	–	–	–	–	8990 ± 1630 nM	72.3 ± 3.84%	99.3 ± 0.67%	3750 ± 207 nM
C[C@H]1[C@H]2Cc3ccc(O)cc3[C@]1(CCNC(=O)Nc1ccccc1F)CCN2C [Compound 78, 1-(2-fluorophenyl)-3-(2-((2R,6R,11R)-8-hydroxy-3,11-dimethyl-2,3,4,5-tetrahydro-2,6-methanobenzo[d]azocin-6(1H)-yl)ethyl)urea]	90.5 ± 15.4 nM	67 ± 3.71%	33.5 ± 4.9 nM	71 ± 3.61%	–	–	–	–
C[C@H]1[C@H]2Cc3ccc(O)cc3[C@]1(CCN1CCC(N(C3CC3)S(=O)(=O)c3ccccc3)CC1)CCN2C [Compound 7, N-cyclopropyl-N-(1-(2-((2R,6R,11R)-8-hydroxy-3,11-dimethyl-2,3,4,5-tetrahydro-2,6-methanobenzo[d]azocin-6(1H)-yl)ethyl)piperidin-4-yl)benzene-sulfonamide]	503 ± 116 nM	23.4 ± 1.33%	624 ± 65.9 nM	54.5 ± 4.33%	83.1 ± 1.96 nM	99 ± 1%	–	–
C[C@H]1[C@H]2Cc3ccc(O)cc3[C@]1(CCNC(=O)Nc1cccc(F)c1)CCN2C [Compound 79, 1-(3-fluorophenyl)-3-(2-((2R,6R,11R)-8-hydroxy-3,11-dimethyl-2,3,4,5-tetrahydro-2,6-methanobenzo[d]azocin-6(1H)-yl)ethyl)urea]	39.1 ± 7.13 nM	58.9 ± 7.55%	19.7 ± 1.11 nM	71.6 ± 5.96%	–	–	–	–
C[C@H]1[C@H]2Cc3ccc(O)cc3[C@]1(CCNC(=O)Nc1ccc(F)cc1)CCN2C [Compound 76, 1-(4-fluorophenyl)-3-(2-((2R,6R,11R)-8-hydroxy-3,11-dimethyl-2,3,4,5-tetrahydro-2,6-methanobenzo[d]azocin-6(1H)-yl)ethyl)urea]	28.4 ± 3.98 nM	28.9 ± 1.69%	28.8 ± 10.5 nM	58.5 ± 2.78%	–	–	–	–
C[C@H]1[C@H]2Cc3ccc(O)cc3[C@]1(CCNC(=O)Nc1ccc(F)cc1)CCN2CC1CC1 [Compound 18, 1-(2-((2R,6R,11R)-3-(cyclopropyl-methyl)-8-hydroxy-11-methyl-2,3,4,5-tetrahydro-2,6-methanobenzo[d]azocin-6(1H)-yl)ethyl)-3-(4-fluorophenyl)urea]	0.31 ± 0.063 nM	4.38 ± 0.35%	0.12 nM	22.4 ± 1.04%	–	–	–	–
